The experiment deals with ischemia-reperfusion BBB model. The experiment is described as follows: Effects of radical scavenger edaravone on ischemia-reperfusion BBB model (TEER and Na—F permeability). To be noted: edaravone added at the end of the 6 h ischemia period; 3 h reperfusion; FIG. 10. The class given is cell-based, rat. The method, then: TEER was measured with ENDOHM (manufactured by WPI). Then, the experiment on Na—F permeability was conducted.
1/PSapper=1/PSmembrane+1/PStrans.
FIG. 4 is a graph showing variation per day of transendothelial electrical resistance value measurement results of 7 coculture models prepared by the method shown in Example 4. FIG. 5 is a graph comparing transendothelial electrical resistance value measurement results among 7 coculture models prepared by the method shown in Example 4. Transendothelial Electrical Resistance (TEER) was measured with ENDOHM (manufactured by WPI). The electrical resistance value of each BBB model was measured from 2 to 7 days after model preparation. The TEER values of E00, E0A, and E0P were calculated by subtracting therefrom the electrical resistance value of only the membrane. The TEER values of EA0 ad EAP were calculated by subtracting therefrom the electrical resistance value of the membrane on which only the astrocytes were cultured. The TEER values of EP0 ad EPA were calculated by subtracting therefrom the electrical resistance value of the membrane on which only the pericytes were cultured. […]

The structures appear in SMILES notation.

In the case of `CC1=NN(c2ccccc2)C(=O)C1` [edaravone], the “reduction in TEER attributed to ischemia-reperfusion (reduction in tight junction function)” value is reported as “significantly suppressed” and the “rise in Na—F permeability attributed to ischemia-reperfusion (reduction in tight junction function)” value is recorded as “significantly suppressed”.

The values are drawn from patent US20100273200A1, “In-Vitro Model of Blood-Brain Barrier, In-Vitro Model of Diseased Blood-Brain Barrier, and Drug Screening Method, Analysis Method for Functions of Diseased Blood-Brain Barrier, and Analysis Method for Pathogenesis Using the Same” (priority 2005, published 2010).
